Laboratory results as given in patent US8637526B2, “Pyrazolopyrimidine JAK inhibitor compounds and methods” (Genentech, Inc., priority 2008, dated 2014).

What was measured:
human JAK1 kinase domain = human JAK1 kinase domain (Homo sapiens (Human), UniProt P23458); assay: JAK1 Inhibition Assay Protocol (Caliper LabChip peptide phosphorylation); format: biochemical; conditions: enzymatic activity, 25 uM ATP
Excerpt: The catalytically active kinase domain of human JAK1, JAK2, JAK3 or TYK2 was purified from extracts of SF9 insect cells infected with a recombinant baculovirus expression vector encoding the human JAK1, JAK2, JAK3 or TYK2 kinase domains (JAK1 amino acid residues N852-D1154 according to the numbering of GenBank sequence accession number P23458, JAK2 amino acid residues D812-G1132 according to the numbering of GenBank sequence accession number NP_004963.1; JAK3 amino acid residues S783-S1124 according to the numbering of GenBank sequence accession number P52333, and TYK2 amino acid residues N873-C1187 according to the numbering of GenBank sequence accession number P29597). The activity of the JAK1, JAK2, JAK3 or TYK2 kinase domains can be measured by a number of direct and indirect methods, including quantification of phosphorylation of peptide substrates derived from the human JAK3 protein (Saltzman et al., Biochem. Biophys. Res. Commun. 246:627-633 (2004)). The activity of the JAK1, JAK2, JAK3 or TYK2 kinase domains was measured in vitro by monitoring phosphorylation of JAK3 derived peptides using the Caliper LabChip technology.
(§1) The activity of the isolated JAK1 or TYK2 kinase domain was measured by monitoring phosphorylation of a peptide derived from JAK3 ([…] fluorescently labeled on the N-terminus with 5-carboxyfluorescein using the Caliper LabChip technology (Caliper Life Sciences, Hopkinton, Mass.). […] Reactions were incubated at 22° C. in 384-well polypropylene microtiter plates for 30 minutes and then stopped by addition of 25 uL of an EDTA containing solution (100 mM Hepes pH 7.2, 0.015% Brij-35, 150 mM EDTA), resulting in a final EDTA concentration of 50 mM. After termination of the kinase reaction, the proportion of phosphorylated product was determined as a fraction of total peptide substrate using the Caliper LabChip 3000 according to the manufacturer's specifications. Ki values were then determined using the Morrison tight binding model (Morrison, J. F., Biochim. Biophys. Acta. 185:269-296 (1969); William, J. W. and Morrison, J. F., Meth. Enzymol., 63:437-467 (1979)).

human JAK3 kinase domain = human JAK3 kinase domain (Homo sapiens (Human), UniProt P52333); assay: biochemical; format: biochemical; conditions: enzymatic activity, 5 uM ATP; read-out: JAK3 Ki
human JAK3 kinase domain, sequence (P52333 783-1124): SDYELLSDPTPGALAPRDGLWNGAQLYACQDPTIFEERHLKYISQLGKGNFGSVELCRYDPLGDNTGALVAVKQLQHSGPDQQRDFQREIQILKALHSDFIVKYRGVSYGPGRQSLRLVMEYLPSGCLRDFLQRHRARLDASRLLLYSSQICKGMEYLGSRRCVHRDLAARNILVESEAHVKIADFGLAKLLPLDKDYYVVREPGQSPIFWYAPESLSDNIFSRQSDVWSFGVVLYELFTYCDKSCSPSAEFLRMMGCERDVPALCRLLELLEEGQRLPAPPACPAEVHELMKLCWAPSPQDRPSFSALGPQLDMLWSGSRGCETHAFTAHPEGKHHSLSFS
Description: The activity of the JAK1, JAK2, JAK3 or TYK2 kinase domains was measured in vitro by monitoring phosphorylation of JAK3 derived peptides using the Caliper LabChip technology.
as §1, with “JAK3” for “JAK1 or TYK2”, “specifications.” for “specifications. Ki values were then determined using the Morrison tight binding model (Morrison, J. F., Biochim. Biophys. Acta. 185:269-296 (1969); William, J. W. and Morrison, J. F., Meth. Enzymol., 63:437-467 (1979)).”

TF-1 cells [1] = assay: EPO-stimulated STAT5 phosphorylation in TF-1 cells (JAK2-dependent signaling, MSD); format: cell-based; conditions: Homo sapiens, TF-1, 0.5 h, read-out: EPO pSTAT5 TF1 EC50
Description: (§2) The activities of compounds were determined in cell-based assays that are designed to measure JAK1 or JAK2-dependent signaling. Compounds were serially diluted in DMSO and incubated with TF-1 cells (American Type Culture Collection (ATCC); Manassas, Va.) in 384-well microtiter plates in OptiMEM medium without phenol red, 1% Charcoal/Dextran stripped FBS, 0.1 mM NEAA, 1 mM sodium pyruvate (Invitrogen Corp.; Carlsbad, Calif.) at a final cell density of 100,000 cells per well and a final DMSO concentration of 0.2%. Human recombinant IL-6 (R&D systems; Minneapolis, Minn.) or EPO (Invitrogen Corp.; Carlsbad, Calif.) was then added at a final concentration of 30 ng/mL or 10 Units/mL, respectively, to the microtiter plates containing the TF-1 cells and compound and the plates were incubated for 30 min at 37° C. Compound-mediated effects on STAT3 or STATS phosphorylation were then measured in the lysates of cells incubated in the presence of IL-6 or EPO, respectively, using the Meso Scale Discovery (MSD) technology (Gaithersburg, Md.) according to the manufacturer's protocol and EC50 values were determined.

TF-1 cells [2] = assay: IL-6-stimulated STAT3 phosphorylation in TF-1 cells (JAK1-dependent signaling, MSD); format: cell-based; conditions: Homo sapiens, TF-1, 0.5 h, read-out: IL6-pSTAT3 TF1 EC50
Description: as §2

NK92 cells = assay: IL-12-stimulated STAT4 phosphorylation in NK92 cells (TYK2-dependent signaling, MSD); format: cell-based; conditions: NK92, 1 h, read-out: IL12-pSTAT4 NK92 EC50
Description: The activities of compounds were determined in cell-based assays that are designed to measure TYK2-dependent signaling. Compounds were serially diluted in DMSO and incubated with NK92 cells (American Type Culture Collection (ATCC); Manassas, Va.) in 96-well microtiter plates in RPMI medium at a final cell density of 100,000 cells per well and a final DMSO concentration of 0.57%. Human recombinant IL-12 (R&D systems; Minneapolis, Minn.) was then added at a final concentration of 10 ng/mL to the microtiter plates containing the NK92 cells and compound and the plates were incubated for 1 hr at 37° C. Compound-mediated effects on STAT4 phosphorylation were then measured in the lysates of incubated cells using the Meso Scale Discovery (MSD) technology (Gaithersburg, Md.) according to the manufacturer's protocol and EC50 values were determined

[3] = tested on: Set-2 cells, which express the JAK2V617F mutant protein; assay: STAT5 phosphorylation in Set-2 cells (JAK2-dependent signaling, MSD); format: cell-based; conditions: Homo sapiens, SET-2, 1 h, read-out: pSTAT5 SET2 EC50
Description: The activities of compounds were determined in cell-based assays that are designed to measure JAK2-dependent signaling or proliferation. Compounds were serially diluted in DMSO and incubated with Set-2 cells (German Collection of Microorganisms and Cell Cultures (DSMZ); Braunschweig, Germany), which express the JAK2V617F mutant protein, in 96-well microtiter plates for 1 hr at 37° C. in RPMI medium at a final cell density of 100,000 cells per well and a final DMSO concentration of 0.57%. Compound-mediated effects on STATS phosphorylation were then measured in the lysates of incubated cells using the Meso Scale Discovery (MSD) technology (Gaithersburg, Md.) according to the manufacturer's protocol and EC50 values were determined. Alternatively, serially diluted compounds were added to 384-well microtiter plates in RPMI medium with 10% fetal bovine serum (Invitrogen Corp.; Carlsbad, Calif.) at a final cell density of 2500 cells per well and a final DMSO concentration of 0.3% and incubated at 37° C. for 72 hours. Cell viability was then determined using the CellTiter-Glo® Luminescent Cell Viability Assay according to the manufacturer's protocol (Promega; Madison, Wis.) and EC50 values were determined.

human JAK1 kinase domain, sequence (P23458 852-1154): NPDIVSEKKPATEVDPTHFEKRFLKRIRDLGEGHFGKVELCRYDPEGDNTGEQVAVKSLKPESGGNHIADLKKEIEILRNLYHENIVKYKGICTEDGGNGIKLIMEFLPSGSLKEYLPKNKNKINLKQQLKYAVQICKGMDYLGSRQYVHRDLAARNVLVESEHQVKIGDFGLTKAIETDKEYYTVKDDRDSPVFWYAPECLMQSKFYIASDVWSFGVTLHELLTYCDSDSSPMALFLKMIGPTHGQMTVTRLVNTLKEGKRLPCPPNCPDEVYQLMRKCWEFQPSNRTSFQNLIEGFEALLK

SMILES | Ki (human JAK1 kinase domain) | Ki (human JAK3 kinase domain) | EC50 (TF-1 cells [1]) | EC50 (TF-1 cells [2]) | EC50 (NK92 cells) | EC50 [3]
Nc1ccn2ncc(C(=O)Nc3conc3-c3cccc(Cl)c3)c2n1 [Example 250, 5-Amino-pyrazolo[1,5-a]-pyrimidine-3-carboxylic acid [3-(3-chloro-phenyl)-isoxazol-4-yl]-amide] | 28.4 nM | 55.6 nM | 340 nM | 839 nM | 105 nM | –
Cc1ccc(C)c(-c2nn(C)cc2NC(=O)c2cnn3ccc(N)nc23)c1 [Example 225, 5-amino-N-(3-(2,5-dimethylphenyl)-1-methyl-1H-pyrazol-4-yl)pyrazolo[1,5-a]pyrimidine-3-carboxamide] | – | – | – | 130 nM | 119 nM | 12.8 nM
